This is an account of results in article PMC6476888, “Design and synthesis of anticancer 1-hydroxynaphthalene-2-carboxanilides with a p53 independent mechanism of action” (Scientific Reports, 2019).

One test concerns CT-DNA. The test is described as follows: Spectrophotometric DNA intercalation assay. It is filed as binding, calf. The note with it: for Changes in absorbance: bound to CT-DNA (18 µM), 1.5 h 37 °C, Tris-HCl pH 7.9; for % hypochromism / Δε: bound to CT-DNA, for CP-31398 first value (312 nm band); for red shift: wavelengths of maximum absorption, individual vs DNA-bound compound. The source says: The fused aromatic rings of the naphthalene moiety and halogen substituents in aniline may guarantee good intercalating properties[71],[72]. On the other hand, the intercalation of DNA may explain the high activity against both the wild-type and p53 mutants as was reported for a series of styrylquinolines. Binding to DNA causes the bases to mismatch or cleave, which results in the arrest of the cell cycle and apoptosis. The effectiveness of the p53 system is one of the most important factors in the response to therapy. We tested the intercalating properties of the selected compounds in a spectrophotometric assay on calf-thymus DNA. The absorption spectra of the tested compounds in the absence and presence of CT-DNA are presented in Figure S1 Supplementary Information and the spectral properties with doxorubicine and CP-31398 are summarized in Table 2.
For the DNA binding studies, Calf-thymus DNA (CT-DNA) was purchased from Sigma- Aldrich. The lyophilized CT-DNA was dissolved in 10 mM Tris-HCl, pH 7.9, mixed gently and left overnight at 4 °C. The purity of the CT-DNA solution was determined by measuring the ratio of UV absorbance at 260 and 280 nm. […] Then, the concentration of CT-DNA was determined from the absorbance at 260 nm using an extinction coefficient of 6600 M^−1cm^−1. The tested compounds including DOX and CP-31398 were dissolved to a concentration of 8.35 mM in DMSO, which was then used as the stock solution for preparing the various concentrations (25, 12.5, 6 and 3 µM) in 1 mL in 10 mM of Tris-HCl (pH 7.9). Afterwards, 18 µM CT-DNA was added to the prepared solutions, which were incubated for 1.5 h at 37 °C with occasional vortexing. The absorption spectra were measured using a Hitachi U-2900 spectrophotometer in the range of 200–500 nm. All absorption spectra were imported into OriginPro 8.0 and compared.

In the next test the test system is NHDF. The test is described as follows: Cytotoxicity (MTS, 72 h) against normal human fibroblasts. It is filed as cell-based. The note with it: for IC50: Homo sapiens, NHDF, MTS, 72 h incubation.

Several values for one entry are separate records, joined by “and”; a condition that tells them apart may be missing. Equal values may be shown once. Entries after “also recorded” stand apart in the source; their conditions may differ.

By IC50 is commonly meant the point on the concentration scale where inhibition reaches its midpoint.

Consider `O=C(Nc1ccc(F)c(Cl)c1)c1ccc2ccccc2c1O` [5s], for which, in the test on CT-DNA, the Changes in absorbance entry is reported as “hypochromism”, the “% hypochromism” value was determined as 6.5%, the Δε is 255.6 M⁻¹ cm⁻¹ and the red shift amounted to 2 nm. In the test with NHDF, the IC50 was above 25 µM. In the test on NHDF (cytotoxicity against the normal cell line vs HCT116), the selectivity index was above 30.

As for `O=C(Nc1cc(C(F)(F)F)cc(C(F)(F)F)c1)c1ccc2ccccc2c1O` [7f], in the test with CT-DNA, the Changes in absorbance result is “rather low hypochromic effect; also recorded: hypochromism”; the “% hypochromism” value is 5.7%; the Δε came to 244.4 M⁻¹ cm⁻¹; the red shift entry is “no wavelength shift and 0 nm”. The IC50 with NHDF stood at 3.55 ± 0.76 µM.

Regarding `O=C(Nc1cc(C(F)(F)F)cc(C(F)(F)F)c1Cl)c1ccc2ccccc2c1O` [5u], in the test on CT-DNA, the Changes in absorbance result is reported as “hypochromism”; the “% hypochromism” value was 14%; the Δε turned out to be 922.2 M⁻¹ cm⁻¹; the red shift result was “small red-shift and 2 nm”. The half-inhibitory concentration (IC50) in the test with NHDF came out at 16.3 ± 1.28 µM.
